Experimental data: article PMC4441825 (Chemical research in toxicology, 2013)

Molecular target: regulator of G-protein signaling 4 (RGS4) (Rattus norvegicus, UniProt P49799)
Assay: LC-ESI-MS of intact protein
Assay type: biochemical

regulator of G-protein signaling 4 (RGS4), sequence (P49799 52-205): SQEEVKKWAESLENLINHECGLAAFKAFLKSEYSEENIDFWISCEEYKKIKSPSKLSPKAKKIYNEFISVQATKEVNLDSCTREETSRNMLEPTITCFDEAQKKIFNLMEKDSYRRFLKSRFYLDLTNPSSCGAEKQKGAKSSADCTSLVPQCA
regulator of G-protein signaling 4 (RGS4), sequence (P63096 2-354 R178M/A326S partner): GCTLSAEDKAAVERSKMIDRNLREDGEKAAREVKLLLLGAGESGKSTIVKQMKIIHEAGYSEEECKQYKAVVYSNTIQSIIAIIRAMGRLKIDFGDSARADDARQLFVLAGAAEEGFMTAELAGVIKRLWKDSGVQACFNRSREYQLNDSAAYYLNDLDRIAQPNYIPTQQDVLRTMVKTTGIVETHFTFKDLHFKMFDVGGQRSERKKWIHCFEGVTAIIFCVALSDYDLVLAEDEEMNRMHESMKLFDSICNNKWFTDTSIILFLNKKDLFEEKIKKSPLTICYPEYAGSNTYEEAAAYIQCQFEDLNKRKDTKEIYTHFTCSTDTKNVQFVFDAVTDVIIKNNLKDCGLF

IC50: ~7.5 mM
SMILES: CCCCCC(O)C=CC=O (stereo not shown) [4HNE, 4-hydroxy-2-nonenal]
